Counter-ions that a name gives are not always drawn. ± gives the standard deviation of the averaged measurements.
Tested on: SW872
Experiment: relative viability vs DMSO control (72 h) (fraction); higher = more viable cells
How it was run: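 Sarcoma cell lines were grown in 384-well plates seeded toward 80–90% confluence and exposed 24 h later to serially diluted compound. After 72 h at 37 °C and 5% CO2, with 0.1% DMSO vehicle and a 5 µM positive control on the plates, ATPLite was read. Relative viability, given as percent growth averaged over up to triplicate wells, was rescaled so that 1 is full and 0 is none.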

Row | SMILES | relative viability (0.00017 µM) | relative viability (0.00051 µM) | relative viability (0.00152 µM) | relative viability (0.00457 µM) | relative viability (0.01372 µM) | relative viability (0.04115 µM) | relative viability (0.1235 µM) | relative viability (0.3704 µM) | relative viability (1.111 µM) | relative viability (3.333 µM) | relative viability (10 µM) | relative viability (2 pM) | relative viability (5 pM) | relative viability (15 pM) | relative viability (50 pM) | relative viability (0.00014 µM) | relative viability (0.00041 µM) | relative viability (0.0012 µM) | relative viability (0.0037 µM) | relative viability (0.011 µM) | relative viability (200 fM) | relative viability (600 fM)
1 | COc1cccc2c1C(=O)c1c(O)c3c(c(O)c1C2=O)C[C@@](O)(C(=O)CO)C[C@@H]3O[C@H]1C[C@H](N)[C@H](O)[C@H](C)O1 [Doxorubicin Hydrochloride] | 1.04 ± 0.021 | 1.05 ± 0.046 | 1.04 ± 0.031 | 1.08 ± 0.036 | 1.06 ± 0.018 | 0.961 ± 0.024 | 0.527 ± 0.051 | 0.203 ± 0.011 | 0.172 ± 0.014 | 0.213 ± 0.005 | 0.175 ± 0.0045 | – | – | – | – | – | – | – | – | – | – | –
2 | CO[C@H]1C[C@@H]2CC[C@@H](C)[C@@](O)(O2)C(=O)C(=O)N2CCCC[C@H]2C(=O)O[C@H]([C@H](C)C[C@@H]2CC[C@@H](OP(C)(C)=O)[C@H](OC)C2)CC(=O)[C@H](C)/C=C(\C)[C@@H](O)[C@@H](OC)C(=O)[C@H](C)C[C@H](C)/C=C/C=C/C=C/1C [Ridaforolimus] | 0.974 ± 0.036 | 0.833 ± 0.034 | 0.747 ± 0.021 | 0.7118 ± 0.0071 | 0.626 ± 0.035 | 0.6 ± 0.034 | 0.5981 ± 0.0039 | 0.597 ± 0.0072 | 0.579 ± 0.012 | 0.565 ± 0.017 | 0.565 ± 0.015 | – | – | – | – | – | – | – | – | – | – | –
3 | Cc1cc(C)c(/C=C2\C(=O)Nc3ccccc32)[nH]1 [Semaxanib] | 0.968 ± 0.038 | 0.968 ± 0.024 | 0.938 ± 0.084 | 0.933 ± 0.067 | 0.936 ± 0.062 | 0.953 ± 0.067 | 0.979 ± 0.022 | 0.99 ± 0.028 | 0.963 ± 0.042 | 0.972 ± 0.031 | 0.8936 ± 0.0083 | – | – | – | – | – | – | – | – | – | – | –
4 | CN1CCC(COc2cnc(-c3cccc(Cn4nc(-c5cccc(C#N)c5)ccc4=O)c3)nc2)CC1 [Tepotinib] | 1.057 ± 0.008 | 1.07 ± 0.02 | 1.05 ± 0.037 | 1.04 ± 0.022 | 1.03 ± 0.038 | 1.01 ± 0.022 | 1.04 ± 0.016 | 1.02 ± 0.043 | 0.999 ± 0.019 | 0.972 ± 0.039 | 0.918 ± 0.033 | – | – | – | – | – | – | – | – | – | – | –
5 | COc1cc2c(Oc3ccc4[nH]c(C)cc4c3F)ncnc2cc1OCCCN1CCCC1 [Cediranib] | 1.04 ± 0.024 | 1.05 ± 0.039 | 1.06 ± 0.042 | 1.05 ± 0.016 | 1.063 ± 0.0043 | 1.04 ± 0.035 | 1.06 ± 0.027 | 1.03 ± 0.032 | 0.982 ± 0.022 | 1.05 ± 0.021 | 1.026 ± 0.002 | – | – | – | – | – | – | – | – | – | – | –
6 | C[C@@H](c1ccc2nccn2c1)n1nnc2ncc(-c3cnn(C)c3)nc21 [Volitinib] | 1.06 ± 0.029 | 1.06 ± 0.034 | 1.08 ± 0.027 | 1.08 ± 0.051 | 1.06 ± 0.045 | 1.089 ± 0.0097 | 1.07 ± 0.041 | 1.06 ± 0.043 | 1.1 ± 0.026 | 1.05 ± 0.025 | 1.05 ± 0.044 | – | – | – | – | – | – | – | – | – | – | –
7 | CC1(C)CNc2cc(NC(=O)c3cccnc3NCc3ccncc3)ccc21 [Motesanib] | 1 ± 0.03 | 0.988 ± 0.014 | 0.972 ± 0.025 | 0.971 ± 0.029 | 0.95 ± 0.047 | 0.98 ± 0.012 | 0.971 ± 0.035 | 0.999 ± 0.015 | 0.978 ± 0.021 | 0.958 ± 0.035 | 0.811 ± 0.028 | – | – | – | – | – | – | – | – | – | – | –
8 | N#CC[C@H](C1CCCC1)n1cc(-c2ncnc3[nH]ccc23)cn1 [Ruxolitinib] | 1.02 ± 0.032 | 1.048 ± 0.0078 | 1.052 ± 0.009 | 1.01 ± 0.014 | 0.9983 ± 0.0075 | 0.998 ± 0.038 | 0.974 ± 0.046 | 0.954 ± 0.059 | 0.914 ± 0.075 | 0.886 ± 0.041 | 0.729 ± 0.024 | – | – | – | – | – | – | – | – | – | – | –
9 | Cc1nc(NC(=O)N2CCC[C@H]2C(N)=O)sc1-c1ccnc(C(C)(C)C(F)(F)F)c1 [Alpelisib] | 1.04 ± 0.055 | 1.04 ± 0.046 | 1.03 ± 0.052 | 1 ± 0.062 | 0.965 ± 0.068 | 0.938 ± 0.077 | 0.835 ± 0.039 | 0.778 ± 0.062 | 0.698 ± 0.085 | 0.565 ± 0.035 | 0.398 ± 0.024 | – | – | – | – | – | – | – | – | – | – | –
10 | CN1CCN(c2ccc3nc(-c4c(N)c5c(F)cccc5[nH]c4=O)[nH]c3c2)CC1 [Dovitinib] | 1.05 ± 0.054 | 1.04 ± 0.022 | 1.06 ± 0.015 | 1.08 ± 0.018 | 1.06 ± 0.045 | 1.05 ± 0.025 | 0.937 ± 0.097 | 0.891 ± 0.067 | 0.604 ± 0.03 | 0.402 ± 0.023 | 0.235 ± 0.022 | – | – | – | – | – | – | – | – | – | – | –
11 | COc1cc2c(cc1O)CCN[C@]21CS[C@@H]2c3c(OC(C)=O)c(C)c4c(c3[C@H](COC1=O)N1[C@@H]2[C@H]2c3c(cc(C)c(OC)c3O)C[C@@H]([C@@H]1O)N2C)OCO4 [Trabectedin] | – | – | – | – | – | – | – | – | – | – | – | 1.045 ± 0.0069 | 0.986 ± 0.05 | 0.835 ± 0.034 | 0.606 ± 0.1 | 0.281 ± 0.028 | 0.158 ± 0.0096 | 0.202 ± 0.01 | 0.245 ± 0.0073 | 0.183 ± 0.0041 | 1.03 ± 0.037 | 1.038 ± 0.0094
12 | C=CC(=O)Nc1cccc(Oc2nc(Nc3ccc(N4CCN(C)CC4)cc3)nc3ccsc23)c1 [Olmutinib] | 1.01 ± 0.04 | 1.03 ± 0.011 | 1.02 ± 0.029 | 1.03 ± 0.034 | 1.034 ± 0.0086 | 1.01 ± 0.044 | 1.01 ± 0.011 | 1.02 ± 0.018 | 1.011 ± 0.0092 | 0.873 ± 0.05 | 0.625 ± 0.015 | – | – | – | – | – | – | – | – | – | – | –
13 | CC(C)NC(=O)C1CCC(n2c(NC(=O)c3ccc(F)cc3)nc3ccc(CN4CCC(C(C)(C)O)CC4)cc32)CC1 (centres undefined) [Belizatinib] | 1.08 ± 0.04 | 1.07 ± 0.027 | 1.04 ± 0.052 | 1.05 ± 0.033 | 1.07 ± 0.01 | 1.05 ± 0.024 | 1.01 ± 0.019 | 0.817 ± 0.034 | 0.5729 ± 0.0013 | 0.412 ± 0.021 | 0.274 ± 0.0093 | – | – | – | – | – | – | – | – | – | – | –
14 | CCN1CCN(Cc2ccc(Nc3ncc(F)c(-c4cc(F)c5nc(C)n(C(C)C)c5c4)n3)nc2)CC1 [Abemaciclib] | 1.01 ± 0.08 | 1.03 ± 0.038 | 1.01 ± 0.044 | 1.02 ± 0.046 | 1.01 ± 0.052 | 0.95 ± 0.095 | 0.874 ± 0.037 | 0.742 ± 0.025 | 0.678 ± 0.032 | 0.668 ± 0.018 | 0.709 ± 0.04 | – | – | – | – | – | – | – | – | – | – | –
15 | COc1c(OCCCN2CCOCC2)ccc2c1N=C(NC(=O)c1cnc(N)nc1)N1CCN=C21 [Copanlisib] | 1.07 ± 0.03 | 1.02 ± 0.049 | 1.02 ± 0.064 | 0.817 ± 0.059 | 0.689 ± 0.037 | 0.599 ± 0.08 | 0.425 ± 0.033 | 0.284 ± 0.0047 | 0.193 ± 0.013 | 0.16 ± 0.006 | 0.149 ± 0.015 | – | – | – | – | – | – | – | – | – | – | –
16 | Cc1nc(-c2cn3c(n2)-c2ccc(-c4cnn(C(C)(C)C(N)=O)c4)cc2OCC3)n(C(C)C)n1 [Taselisib] | 1 ± 0.044 | 0.996 ± 0.03 | 1.02 ± 0.021 | 0.9808 ± 0.006 | 0.93 ± 0.061 | 0.88 ± 0.017 | 0.758 ± 0.029 | 0.643 ± 0.012 | 0.504 ± 0.015 | 0.381 ± 0.015 | 0.284 ± 0.018 | – | – | – | – | – | – | – | – | – | – | –
17 | O=C(Cc1ccc(-c2ccc(OCCN3CCOCC3)cc2)cn1)NCc1ccccc1 [KX2-391] | 1.06 ± 0.031 | 1.05 ± 0.037 | 1.08 ± 0.029 | 1.03 ± 0.031 | 1.04 ± 0.034 | 0.912 ± 0.049 | 0.504 ± 0.037 | 0.472 ± 0.029 | 0.435 ± 0.014 | 0.443 ± 0.022 | 0.461 ± 0.028 | – | – | – | – | – | – | – | – | – | – | –
18 | C[C@@H]1COCCN1c1cc(-c2ccnn2C)c2ccnc(-c3ccn[nH]3)c2n1 | 0.994 ± 0.054 | 1.01 ± 0.018 | 1.01 ± 0.014 | 1.04 ± 0.037 | 0.953 ± 0.043 | 0.867 ± 0.013 | 0.714 ± 0.047 | 0.452 ± 0.043 | 0.282 ± 0.012 | 0.229 ± 0.011 | 0.197 ± 0.0092 | – | – | – | – | – | – | – | – | – | – | –
19 | Cc1cnc(Nc2ccc(OCCN3CCCC3)cc2)nc1Nc1cccc(S(=O)(=O)NC(C)(C)C)c1 [Fedratinib] | 1.04 ± 0.013 | 1.06 ± 0.027 | 1.05 ± 0.034 | 1.01 ± 0.073 | 1.04 ± 0.044 | 1.03 ± 0.075 | 0.942 ± 0.064 | 0.699 ± 0.049 | 0.408 ± 0.024 | 0.16 ± 0.018 | 0.00193 ± 0.0011 | – | – | – | – | – | – | – | – | – | – | –
